Assay in all cases: inhibition of tumour cell growth, NCI panel, 48 h
The test system of test [1] is COLO 205 colon.
Test [2] has as its system OVCAR-3 ovarian.
Test [3] concerns KM20L2 colon.
In test [4] the test system is NCI-H522 lung.
For test [5], the system named is DMS 114 small cell lung.
Test [6] relates to U251 CNS.
The subject of test [7] is MOLT-4 leukemia.
Test [8] concerns PC-3 prostate.
For test [9], the system named is DU-145 prostate.
Test [10] concerns BT-549 breast.

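In this assay, cells in 96-well plates receive the compound at five concentrations for 48 hours. Endpoints are linearly interpolated between the surrounding concentrations. GI50 marks 50% less growth. TGI: total growth inhibition.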 Bounds are passed on as bounds.

In the case of `CN(C)N=Nc1ccc(S(N)(=O)=O)cc1`, the TGI in [1], in [2], in [3], in test [4], in test [5] and in test [6] was above 100 µM each time. The same compound registered a TGI in test [7] above 100 µM.

As to `CSc1nnc(C(C#N)C#N)nn1`, the TGI in test [1], in test [2], in [3], in test [4], in [5] and in test [6] was above 100 µM throughout. In addition, the TGI in test [7] is above 100 µM.

With `CC(=O)C1C(=O)C(=O)N(CCN2C(=O)C(=O)C(C(C)=O)C2=O)C1=O` (centres undefined), the TGI in test [1], in test [2], in test [3], in test [4], in test [5] and in test [6] was above 100 µM in each case.

Turning to `CCOC(=O)C1C(=O)CC(=O)C2CCCCC21` (centres undefined), the TGI in test [1], in test [2], in [4], in test [5], in test [6] and in test [7] was above 100 µM in each case.

With `COc1ccc2c(c1)[n+]([O-])c(-c1ccccc1Cl)c(N)[n+]2[O-]`, the TGI in [1] is 32.6 µM; in test [2], above 100 µM; in [3], above 100 µM; in test [4], 31.3 µM; in test [5], above 100 µM; in [6], above 100 µM. The TGI in [7] was above 100 µM.

`CCN(CC)c1c(C)nnn1C1OC(COC(C)=O)C(OC(C)=O)C(OC(C)=O)C1OC(C)=O` (centres undefined): the TGI in test [1], in test [2], in test [3], in test [4], in test [5] and in test [6] was above 100 µM in each case. Also, in [7], the TGI was above 100 µM.

`Cc1[nH]c2cc([N+](=O)[O-])ccc2c1[N+](=O)[O-]`: the TGI in [1] was 33 µM; in test [2], above 100 µM; in test [3], above 100 µM; in [4] it was 38.4 µM; in test [5], 33.6 µM; in test [6], 71.2 µM. Moreover, in [7], the TGI amounted to 71.4 µM.

As to `Cc1ccc(S(=O)(=O)NNS(C)(=O)=O)cc1`, the TGI in [1], in test [2], in test [3], in test [4], in [5] and in test [6] was above 100 µM each time. The compound also displayed a TGI in [7] above 100 µM.

`N#Cc1ccc(C2SCc3nc4ccccc4n32)cc1` (centres undefined): the TGI in test [1] is above 100 µM; in [2] it was above 100 µM; in test [3] it was above 100 µM; in [4], 75.8 µM; in test [6], above 100 µM; in test [7] it was above 100 µM.

`CC1(C)C(=O)/C=C\C(=O)C(C)(C)C(=O)/C=C\C(=O)C(C)(C)C2=CC=C(O2)C(C)(C)C(=O)/C=C\C1=O`: the TGI in [1] was 6.45 µM; in [2] it was 9.41 µM; in [3], 28.3 µM; in test [8] it was 29.2 µM; in test [9] it was 32.1 µM; in [4] it was 2.22 µM. In addition, the TGI in [5] came out at 21 µM; in test [6], 30.4 µM; in test [10], 24.2 µM; in test [7] it was 4.81 µM.

Consider `N#CC(/C(CCCC(=O)Nc1cccc([N+](=O)[O-])c1)=N\NC(=O)c1c(O)ccc2ccccc12)c1nc2ccccc2s1` (centres undefined), for which the TGI is above 100 µM in [1]; above 100 µM in [2]; above 100 µM in test [3]; above 100 µM in [4]; 34.5 µM in test [5]; above 100 µM in test [6]. The TGI in test [7] was above 100 µM.

Regarding `COc1ccc(C(=O)C(C(=O)C(=O)NCCCNC(=O)C(=O)C(C(=O)c2ccc(OC)cc2)c2ccc(OC)cc2)c2ccc(OC)cc2)cc1` (centres undefined), the TGI in [1], in test [2], in [3], in test [4], in test [5] and in [6] was above 100 µM each time. In test [7], this compound displayed a TGI above 100 µM.

Turning to `Cc1ccc(S(=O)(=O)C2CC2(Cl)Cl)cc1` (centres undefined), the TGI in test [1] is 41.9 µM; in test [2] it was 52.6 µM; in [3], above 100 µM; in test [4] it was 26.7 µM; in [5], 39.8 µM; in [6], above 100 µM. The compound also gave a TGI in test [7] of 42.1 µM.

Turning to `O=C(N/C(=C\c1ccc(/C=C(\NC(=O)c2ccccc2)c2nc3c(O)nc(S)nc3[nH]2)cc1)c1nc2c(O)nc(S)nc2[nH]1)c1ccccc1`, the TGI in [1] was above 100 µM; in test [2] it was above 100 µM; in test [3], above 100 µM; in test [4], 41.1 µM; in test [5], above 100 µM; in [6], above 100 µM. Further, the TGI in [7] is above 100 µM.

Turning to `CC1=C2C=CC(=O)C[C@@]2(C)CCC1`, the TGI in [1], in [2], in test [4], in test [5], in test [6] and in [7] was above 100 µM throughout.

Regarding `CCN(CC)c1ccc(C2N3CCCCC3[C@@H]3c4[nH]c5ccccc5c4CCN23)cc1` (some centres undefined), the TGI in test [1] is 93.2 µM; in test [2], 71.4 µM; in [3], above 100 µM; in test [5] it was 33.1 µM; in [6], above 100 µM; in test [7], above 100 µM.

As to `Cc1cc(Br)ccc1N=Nc1c(C)nn(-c2ccccc2)c1-c1ccccc1`, the TGI in [1], in [2], in test [4], in [5], in test [6] and in [7] was above 100 µM in each case.

Consider `CC(=O)CC(=O)Nc1ccccc1C(F)(F)F`, for which the TGI in test [1], in test [3], in test [4], in test [5], in [6] and in test [7] was above 100 µM throughout.

With `CC(=O)[CH-]C(=O)c1ccccc1.CC(=O)[CH-]C(=O)c1ccccc1.CC(=O)[CH-]C(=O)c1ccccc1.[Ga+3]`, the GI50 is 17.7 µM in test [1]; 20.4 µM in test [2]; 18.5 µM in test [3]; 12.1 µM in test [4]; 12.7 µM in test [6]; 9.64 µM in test [7]. Moreover, the TGI in test [1] came out at 32.3 µM; in test [2] it was 48.9 µM; in test [3], 42.6 µM; in test [4], 25 µM; in test [6], 25.8 µM; in [7], 30.4 µM.

The record behind these values is PubChem BioAssay (NCI).
